A short description of series [1]: Pharmacokinetic studies in male Sprague-Dawley rats (plasma RIA). The class given is in vivo, rat. The procedure: Pharmacokinetic studies were carried out on the compounds of Examples 5 and 6. Each compound was injected subcutaneously (1 μmol/kg) or intravenously (100 nmol/kg) to male Sprague-Dawley rats. Serial blood samples were taken at pre-dose, 5, 30 and 60 minutes and 2, 4, 8, 24, 48, 72 and 96 hours post-agent administration. Plasma were harvested and frozen until analysis by radioimmunoassay (RIA). A commercial polyclonal antibody raised against human native GRF (1–29) was used to detect the compounds. The assay sensitivity was 300 to 10 000 pM. Consequently, some samples had to be diluted for analysis. The results of the pharmacokinetic profiles appear in FIG. 9. As it can be seen, the compound of Example 5, i.e., the native peptide, disappears very rapidly. In fact, the compound of Example 5, whether administered subcutaneously or intrasvenously, could not be detected after 60 minutes post administration. This is consistent with results in Sprague-Dawley rats reported in the literature for GRF (1–29) and other analogues thereof, regarding the terminal half-life thereof and the percentage of bioavailability (SC/IV) (see for example Peptides, 9:207–209, and J. Endocr., 107:R5–R8.

For series [2] the following is noted: in vivo; cited from earlier work.

Where two headings read alike, the source gives them in different places. Where a SMILES comes first, the peptide text is derived from it. [ ]: non-standard residue; d: D form. The star is where a group is joined. Propanoyl(3-maleimido) = O=C1C=CC(=O)N1CCC(=O)*

Regarding `CC[C@H](C)[C@H](NC(=O)[C@H](C)NC(=O)[C@H](CC(=O)O)NC(=O)[C@@H](C)NC(=O)[C@@H](N)Cc1ccc(O)cc1)C(=O)N[C@@H](Cc1ccccc1)C(=O)N[C@H](C(=O)N[C@@H](CCC(N)=O)C(=O)N[C@@H](CO)C(=O)N[C@@H](Cc1ccc(O)cc1)C(=O)N[C@@H](CCCNC(=N)N)C(=O)N[C@@H](CCCCN)C(=O)N[C@H](C(=O)N[C@@H](CC(C)C)C(=O)N[C@@H](C)C(=O)N[C@@H](CCC(N)=O)C(=O)N[C@@H](CC(C)C)C(=O)N[C@@H](CO)C(=O)N[C@@H](C)C(=O)N[C@@H](CCCNC(=N)N)C(=O)N[C@@H](CCCCN)C(=O)N[C@@H](CC(C)C)C(=O)N[C@@H](CC(C)C)C(=O)N[C@@H](CCC(N)=O)C(=O)N[C@@H](CC(=O)O)C(=O)N[C@H](C(=O)N[C@@H](CC(C)C)C(=O)N[C@@H](CO)C(=O)N[C@@H](CCCNC(=N)N)C(=O)N[C@@H](CCCCNC(=O)CCN1C(=O)C=CC1=O)C(N)=O)[C@@H](C)CC)C(C)C)[C@@H](C)O` [Example 6] (H-Y[dA]DAIFTQSYRKVLAQLSARKLLQDILSRK(Propanoyl(3-maleimido))-NH2), the λ in series [1] (intravenous administration, 100 nmol/kg, male Sprague-Dawley rats) was found to be 0.037; in series [1] (subcutaneous administration, 1 μmol/kg, male Sprague-Dawley rats), 0.027. Also, the half-life (in general, the time needed for the level to fall by half in the phase considered) in series [1] (rat, in vivo, sc, 1 umol/kg, subcutaneous administration, 1 μmol/kg, male Sprague-Dawley rats, read-out: Terminal half-life (converted)) is 25.8 ± 2.1 h. The “time post administration at which compound remains detectable in plasma” value in series [1] (subcutaneous (1 μmol/kg) or intravenous (100 nmol/kg), plasma RIA, FIG. 9) was ≥ 96 h.

On to “GRF 1–29: N-terminal 1–29 fragment of growth hormone releasing factor; commercial GRF(1–29) from Polypeptide Laboratories used as comparator”, for which the half-life in series [2] is 0.167 to 0.217 h.

The values above are taken from patent US7268113B2, “Long lasting growth hormone releasing factor derivatives” (ConjuChem Biotechnologies Inc., priority 2002, dated 2007).
